Values quoted from earlier work as cited in patent publication US4430326A (University Patents, Inc., priority 1981, dated 1984).

Experiments:
[1] = tested on: glycogenolytic stimulation; details: Cote, et al.
adenylate cyclase system = details: literature reports

| reported action on adenylate cyclase activity (agonist / antagonist) (adenylate cyclase system) | Substance | reported action toward glycogenolytic stimulation [1] |
| --- | --- | --- |
| – | N^α -trinitrophenyl glucagon | partial agonist |
| agonists | N^α,N^ε -di(trinitrophenyl)-glucagon | – |
| full agonist | [12-homoargine]glucagon | – |
